Experiment: Inhibitory activity against calf thymus RNA polymerase

IC50, > 500 µM:
O=C(O)c1ccc2c(c1)nc(-c1ncc[nH]1)n2C1CCCCC1 [1-Cyclohexyl-2-(1H-imidazol-2-yl)-1H-benzoimidazole-5-carboxylic acid]
O=C(O)c1ccc2c(c1)nc(-c1ccccc1)n2C1CCCCC1 [1-cyclohexyl-2-phenyl-1H-benzo[d]imidazole-5-carboxylic acid]
O=C(O)c1ccc2c(c1)nc(-c1ccco1)n2C1CCCCC1 [1-Cyclohexyl-2-furan-2-yl-1H-benzoimidazole-5-carboxylic acid]
O=C(O)c1ccc2c(c1)nc(-c1ccsc1)n2C1CCCCC1 [1-Cyclohexyl-2-thiophen-3-yl-1H-benzoimidazole-5-carboxylic acid]
O=C(O)c1ccc2c(c1)nc(-c1nccs1)n2C1CCCCC1 [1-Cyclohexyl-2-thiazol-2-yl-1H-benzoimidazole-5-carboxylic acid]
O=C(O)c1ccc2c(c1)nc(-c1ccc[nH]1)n2C1CCCCC1 [1-Cyclohexyl-2-(1H-pyrrol-2-yl)-1H-benzoimidazole-5-carboxylic acid]
O=C(O)c1ccc2c(c1)nc(-c1cccs1)n2C1CCCCC1 [1-Cyclohexyl-2-thiophen-2-yl-1H-benzoimidazole-5-carboxylic acid]

Reference: BindingDB's records for doi:10.1016/j.bmcl.2003.10.023 (Boehringer Ingelheim (Canada), 2003)
